Molecules are shown by their SMILES.

This assay is described as follows: Jurkat Latency Reversal Assay: Jurkat HIV-luciferase clones were maintained in RPMI medium 1640 (Gibco by Life Technologies) containing 10% (vol/vol) fetal bovine serum (SAFC/Sigma-Aldrich) and 25 units/mL penicillin, 25 units/mL streptomycin (Gibco by Life Technologies), and were split 1:4 every 3 to 4 days to maintain a cell density of ˜0.3 to 1 million cells/mL. The Jurkat clones were maintained with the addition of 500 nM EFV in the medium. Three Jurkat cell clones (C16, I15, and N6), each harboring one or two integrated HIV proviruses expressing the luciferase reporter gene, were added at equal amounts for a total of 5,000 cells per well to 384-well plates containing compound titrations. Dose-response testing was performed on compounds dissolved in dimethyl sulfoxide (DMSO, Fisher Scientific, Merelbeke, Belgium) dispensed in duplicate serial 3-fold, 14-point titrations using a D300e Digital Droplet Dispenser (Hewlett-Packard) to give final assay concentrations of 10 μM to 2.1 pM in 50 μL of medium at 0.5% DMSO (vol/vol) final concentration. Cells and compound were incubated at 37° C. for 48 hours, unless otherwise indicated, followed by the addition of 20 μL of Steady-Glo® Luciferase (Promega). Luminescence resulting from the induction of the virally expressed luciferase was measured using an EnVision 2102 Multilabel Plate Reader (Perkin Elmer). Dose-response relationships were analyzed with GraphPad PRISM 6 using a four-parameter logistic regression model to calculate the concentration of compound that gives half-maximal response (EC50) and the maximal percent activation compared to the vehicle control.
As for `CN[C@@H](C)C(=S)N[C@H]1CCS[C@H]2CC(C)(C)[C@@H](C(=O)N[C@H](C(=O)N[C@H]3CC[C@H](NC(=O)[C@@H](NC(=O)[C@H]4N5C(=O)[C@@H](NC(=S)[C@H](C)NC)CCS[C@H]5CC4(C)C)c4ccccc4)CC3)c3ccccc3)N2C1=O`, the EC50 was 89.5 nM.
For `CN[C@@H](C)C(=S)N[C@H]1CCS[C@H]2CC(C)(C)[C@@H](C(=O)N[C@H]3c4ccccc4C[C@H]3C(=O)N[C@H]3CC[C@H](NC(=O)[C@@H]4Cc5ccccc5[C@@H]4NC(=O)[C@H]4N5C(=O)[C@@H](NC(=S)[C@H](C)NC)CCS[C@H]5CC4(C)C)CC3)N2C1=O`, the EC50 is 32 nM.
`CN[C@@H](C)C(=S)N[C@H]1CCS[C@H]2CC(C)(C)[C@@H](C(=O)N[C@H]3c4ccccc4CC[C@H]3C(=O)N[C@H]3CC[C@H](NC(=O)[C@@H]4CCc5ccccc5[C@@H]4NC(=O)[C@H]4N5C(=O)[C@@H](NC(=S)[C@H](C)NC)CCS[C@H]5CC4(C)C)CC3)N2C1=O`: the EC50 was 6.8 nM.
Regarding `CN[C@@H](C)C(=O)N[C@H]1CCS[C@H]2CC(C)(C)[C@@H](C(=O)N[C@H]3c4ccccc4C[C@H]3C(=O)N[C@H]3CC[C@H](NC(=O)[C@@H]4Cc5ccccc5[C@@H]4NC(=O)[C@H]4N5C(=O)[C@@H](NC(=O)[C@H](C)NC)CCS[C@H]5CC4(C)C)CC3)N2C1=O`, the EC50 was 429 nM.
The figure for `CN[C@@H](C)C(=O)N[C@H]1CCS[C@H]2CC(C)(C)[C@@H](C(=O)N[C@H]3c4ccccc4CC[C@H]3C(=O)N[C@H]3CC[C@H](NC(=O)[C@@H]4CCc5ccccc5[C@@H]4NC(=O)[C@H]4N5C(=O)[C@@H](NC(=O)[C@H](C)NC)CCS[C@H]5CC4(C)C)CC3)N2C1=O` is 324 nM; for `CN[C@@H](C)C(=O)N[C@H]1CCS[C@H]2CC(C)(C)[C@@H](C(=O)N[C@H](C(=O)N[C@H]3CC[C@H](NC(=O)[C@@H](NC(=O)[C@H]4N5C(=O)[C@@H](NC(=O)[C@H](C)NC)CCS[C@H]5CC4(C)C)c4ccccc4)CC3)c3ccccc3)N2C1=O` it is 53.7 nM.

The EC50 is the concentration needed to bring the measured effect to its halfway point.

The values above are taken from ChEMBL document CHEMBL5729456, “Compounds useful in HIV therapy” (2022).
